Test [1] concerns the target Carbonic anhydrase 1 (Homo sapiens, UniProt P00915). Kind of test: Inhibition of human CA1 measured after 15 mins by stopped flow carbon dioxide anhydrase assay.
Test [2] deals with Carbonic anhydrase 2 (Homo sapiens, UniProt P00918). Nature of the test: Inhibition of human CA2 measured after 15 mins by stopped flow carbon dioxide anhydrase assay.
The target of test [3] is Carbonic anhydrase 9 (Homo sapiens, UniProt Q16790).
Description: Inhibition of human CA9 measured after 15 mins by stopped flow carbon dioxide anhydrase assay
The target in test [4] is Carbonic anhydrase 12 (Homo sapiens, UniProt O43570). Nature of the test: Inhibition of human CA12 measured after 15 mins by stopped flow carbon dioxide anhydrase assay.
In test [5] the test system is MCF7. Nature of the test: cells. It counts as functional, cell-based. To be noted: Homo sapiens, MCF7, 48 h.
Description: Antiproliferative activity against human MCF7 cells assessed as inhibition of cell proliferation measured after 48 hrs by MTT assay
For test [6], the system named is MCF7. Kind of test: Induction of apoptosis in human MCF7 cells assessed as early apoptotic cells measured by AnnexinV/FITC staining based flow cytometry assay ( Rvb = 0.52%). Type of test: functional. In general terms: Flow cytometry measures light scatter and fluorescence of single cells or particles in a stream.
Test [7] has as its system MCF7. Kind of test: Induction of apoptosis in human MCF7 cells assessed as late apoptotic cells measured by AnnexinV/FITC staining based flow cytometry assay ( Rvb = 0.17%). It counts as functional.
Test [8] relates to MCF7. Kind of test: Induction of apoptosis in human MCF7 cells assessed as necrotic cells measured by AnnexinV/FITC staining based flow cytometry assay ( Rvb = 0.74%). It counts as functional.

Some results are limits rather than exact numbers.

Sequence of Carbonic anhydrase 12 (O43570 whole entry): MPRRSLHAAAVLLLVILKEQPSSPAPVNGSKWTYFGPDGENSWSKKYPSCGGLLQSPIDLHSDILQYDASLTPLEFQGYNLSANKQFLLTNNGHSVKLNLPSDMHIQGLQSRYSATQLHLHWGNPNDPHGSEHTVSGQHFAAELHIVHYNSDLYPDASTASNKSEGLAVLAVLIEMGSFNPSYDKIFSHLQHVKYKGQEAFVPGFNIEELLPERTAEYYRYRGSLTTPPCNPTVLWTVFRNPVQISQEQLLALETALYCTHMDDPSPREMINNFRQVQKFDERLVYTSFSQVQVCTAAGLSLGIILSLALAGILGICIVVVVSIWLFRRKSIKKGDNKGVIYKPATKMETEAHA
Sequence of Carbonic anhydrase 1 (P00915 whole entry): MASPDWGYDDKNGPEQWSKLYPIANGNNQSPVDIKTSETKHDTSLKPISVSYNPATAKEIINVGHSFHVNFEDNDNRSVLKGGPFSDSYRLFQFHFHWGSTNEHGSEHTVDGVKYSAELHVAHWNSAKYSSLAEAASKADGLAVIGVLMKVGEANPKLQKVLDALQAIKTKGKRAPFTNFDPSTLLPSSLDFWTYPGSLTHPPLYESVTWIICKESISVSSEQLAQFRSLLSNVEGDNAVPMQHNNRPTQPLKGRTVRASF

Consider `COC(=O)c1ccc(NC(=O)N/C=C/C=C/c2ccc3c(c2)OCO3)cc1`, for which the Ki in test [1], in test [2], in test [3] and in test [4] was greater than 100 µM each time.

Turning to `O=C(N/C=C/C=C/c1ccc2c(c1)OCO2)Nc1ccc(C(=O)O)cc1`, the Ki (usually the dissociation constant of the complex between target and ligand, obtained from inhibition or displacement) in test [1] is greater than 100 µM; in test [3], 16.1 µM.

As for `NS(=O)(=O)c1ccc(CCNC(=O)N/C=C/C=C/c2ccc3c(c2)OCO3)cc1`, the affinity in test [3] corresponds to a Ki of 0.0682 µM.

As to `O=C(N/C=C/C=C/c1ccc2c(c1)OCO2)Nc1ccccc1C(=O)O`, the Ki in test [1] was greater than 100 µM; in test [3], 30.3 µM.

Turning to `Cc1ccc(NC(=O)N/C=C/C=C/c2ccc3c(c2)OCO3)cc1S(N)(=O)=O`, in test [3], the Ki was 0.903 µM.

In the case of `NS(=O)(=O)c1ccccc1NC(=O)N/C=C/C=C/c1ccc2c(c1)OCO2`, in test [3], the Ki was found to be 0.739 µM.

As for `O=C(N/C=C/C=C/c1ccc2c(c1)OCO2)Nc1ccc(S(=O)(=O)Nc2nccs2)cc1`, the Ki in test [1], in test [2], in test [3] and in test [4] was greater than 100 µM throughout.

With `O=C(N/C=C/C=C/c1ccc2c(c1)OCO2)Nc1cccc(C(=O)O)c1`, the Ki is greater than 100 µM in test [1] and 24.8 µM in test [3].

On to `CC(=O)c1ccc(NC(=O)N/C=C/C=C/c2ccc3c(c2)OCO3)cc1`, for which the Ki in test [1], in test [2], in test [3] and in test [4] was greater than 100 µM each time.

In test [3], `NS(=O)(=O)c1cccc(NC(=O)N/C=C/C=C/c2ccc3c(c2)OCO3)c1` came in with a Ki of 0.319 µM.

Regarding `COC(=O)c1cccc(NC(=O)N/C=C/C=C/c2ccc3c(c2)OCO3)c1`, the Ki in test [1], in test [2], in test [3] and in test [4] was greater than 100 µM in each case.

As for `NS(=O)(=O)c1ccc(NC(=O)N/C=C/C=C/c2ccc3c(c2)OCO3)cc1`, the Ki in test [3] came to 0.0387 µM. Further, the IC50 – broadly, the point on the concentration scale where inhibition reaches its midpoint – in test [5] was 2.17 µM. Also, the figures for the Activity in test [6], in test [7] and in test [8] were 1.91%, 23.14% and 14.19%, respectively.

The values are drawn from ChEMBL document CHEMBL4842374, “Natural inspired piperine-based sulfonamides and carboxylic acids as carbonic anhydrase inhibitors: Design, synthesis and biological evaluation” (Eur J Med Chem, 2021).
